In publication PMC5458211, “Mitochondrial VDAC1-based peptides: Attacking oncogenic properties in glioblastoma” (Oncotarget, 2017):
Non-standard residues stand in square brackets, D forms with d. Residues, ends and D or L forms follow the SMILES beside them.

How the values were obtained:
[1] = test system: primary brain cells (PBCs); test: Cell death by PI staining and flow cytometry, primary brain cells; assay type: cell-based; settings: mouse PBCs, 6 h at 37°C, serum-free medium, PI staining; Fig 1I-1K
From the text: Figure 1 VDAC1-based peptides induce dramatic cell death of several brain tumor-derived cell lines but to lesser extent in primary brain cells A. IHC staining of VDAC1 of human normal brain (n=13) or glioblastoma (n=41) in tissue array slides (Biomax), as described in Materials and methods available online in Supplemental information. Percentages of sections stained at the intensity indicated are shown. […] The VDAC1-derived sequences Δ(1-14)N-terminus and LP4 are in green and pink, respectively. The cell-penetrating peptides Antp and Tf are in orange and blue, respectively. The loop shape of LP4 stabilized by a tryptophan zipper is in purple. The amino acids of Δ(1-14)N-terminus, LP4 and Antp are in the D configuration. The sequences of D-LP4 and Retro-D-LP4 are presented below. C. Immunoblot analysis of VDAC1, HK-I, Bcl-2 and Transferrin receptor (TfR) expression in brain tumor-derived cell lines using specific antibodies, as described in Materials and methods available online in Supplemental information. […] Cells were harvested, washed twice with PBS and cell death was analyzed by propidium iodide (PI) staining and flow cytometry. H. IC50 values (μM) for pepdide inducing cell death as derived from D-G. The results shown correspond to means ± SD (n=3). […] Cells were harvested, washed twice with PBS and cell death was analyzed by PI staining and flow cytometry. […]
Cells (6×10^5 /ml) were incubated in 500 μl serum-free medium with the peptide of interest for 6 h at 37°C in the presence of 5% CO2. The cells were then trypsinized, centrifuged (1500xg, 5 min), washed with PBS and analyzed for cell death using propidium iodide (PI) staining and flow cytometer (Beckton-Dickinson, San Jose, CA) and BD CellQuest Pro software. Apoptotic cell death was also analyzed by PI and annexin V-FITC staining, and by acridine orange and ethidium bromide staining and light microscopy (Olympus LX2-KSP).

[2] = test system: Ki-67; test: Ki-67 immunohistochemistry of xenograft tumors; assay type: in vivo, human U-87MG in nude mice; settings: s.c. U-87MG tumors, 20 μM intra-tumoral, n=5
Method: Figure 3 VDAC1-based peptides inhibit tumor growth, cell proliferation, and invasion in a glioblastoma xenograft mice model A. Graphical representation of the xenograft experiment protocol used. U-87MG cells (3×10^6/mouse) were inoculated into male nude mice as described in Materials and Methods available online in Supplemental information. B, C. […] The calculated average tumor volumes are presented as means ± SE (n=5) (* p≤0.05, ** p≤0.01). C. The volume of peptide-treated tumors is presented as % of control for each indicated time. Results = mean ± SE (n=5) (* p≤0.05, ** […]). […] E. Quantitative analysis of Ki-67 positive cells. Results = mean ± SE (n=5) (*** p<0.001). […]
100% DMSO and then diluted 20-fold with sterile DDW into three groups (6 animals/group) and treated every to reach a concentration of 25 mg/ml in a final DMSO third day with DMSO (1.44%), Retro-Tf-D-LP4 (10 concentration of 5%. PLGA (50 mg) was dissolved in mg/kg) or Retro-Tf-D-LP4 (10 mg/kg) encapsulated by acetone (1 ml). […] Tumor volume was analyzed using VivoQuant 2.10 10 ml of aqueous solution containing 1% PVA (w/v). […]
(Calbiochem, UK). […] Band intensities were analyzed xenografts were injected 20 µl per tumor (2 points) every by densitometry using Multi Gauge software (Fujifilm) […]

| SMILES | cell death in primary brain cells as compared to U-87MG cells [1] | decrease in Ki-67-positive cell numbers [2] |
| --- | --- | --- |
| CC[C@H](C)[C@H](NC(=O)[C@H](Cc1ccc(O)cc1)NC(=O)[C@@H]1CCCN1C(=O)[C@H](CCCNC(=N)N)NC(=O)[C@H](Cc1c[nH]cn1)NC(=O)[C@H](CO)NC(=O)[C@H](Cc1c[nH]c2ccccc12)NC(=O)[C@@H](NC(=O)[C@H](Cc1c[nH]c2ccccc12)NC(=O)[C@H](CCC(=O)O)NC(=O)[C@@H](CCCCN)NC(=O)[C@@H](CCCCN)NC(=O)[C@@H](CC(C)C)NC(=O)[C@@H](CCC(=O)O)NC(=O)[C@H](NC(=O)[C@@H](C)NC(=O)[C@H](NC(=O)[C@@H](CC(N)=O)NC(=O)[C@@H](CC(C)C)NC(=O)[C@@H](C)NC(=O)[C@@H](Cc1c[nH]c2ccccc12)NC(=O)[C@H](NC(=O)[C@@H](C)NC(=O)CNC(=O)[C@@H](CC(N)=O)NC(=O)[C@@H](CO)NC(=O)[C@@H](CC(N)=O)NC(=O)[C@H](CCCCN)NC(=O)[C@H](Cc1c[nH]c2ccccc12)NC(=O)[C@@H](NC(=O)[C@H](Cc1c[nH]c2ccccc12)NC(=O)[C@@H](N)CCCCN)[C@@H](C)O)[C@H](C)O)C(C)C)[C@H](C)O)[C@@H](C)O)C(=O)N[C@@H](C)C(=O)N[C@@H](Cc1c[nH]cn1)C(=O)O [Retro-Tf-D-LP4] | lesser extent |  |
| CC[C@@H](C)[C@@H](NC(=O)[C@@H](CCCCN)NC(=O)[C@H](NC(=O)[C@@H](CCC(N)=O)NC(=O)[C@@H](CCCNC(=N)N)NC(=O)[C@@H](CC(C)C)NC(=O)CNC(=O)[C@@H](Cc1ccccc1)NC(=O)CNC(=O)[C@@H](Cc1ccc(O)cc1)NC(=O)CNC(=O)[C@@H](CCCCN)NC(=O)[C@H](NC(=O)[C@@H](Cc1ccccc1)NC(=O)[C@H](NC(=O)[C@@H](CC(=O)O)NC(=O)[C@H](N)CCCNC(=N)N)C(C)C)[C@H](C)O)[C@H](C)CC)C(=O)N[C@H](Cc1c[nH]c2ccccc12)C(=O)N[C@H](Cc1ccccc1)C(=O)N[C@H](CCC(N)=O)C(=O)N[C@H](CC(N)=O)C(=O)N[C@H](CCCNC(=N)N)C(=O)N[C@H](CCCNC(=N)N)C(=O)N[C@H](CCSC)C(=O)N[C@H](CCCCN)C(=O)N[C@H](Cc1c[nH]c2ccccc12)C(=O)N[C@H](CCCCN)C(=O)N[C@H](CCCCN)C(=O)O [D-ΔN-Ter-Antp] (H-[dR][dD][dV][dF][dT][dK]G[dY]G[dF]G[dL][dR][dQ][dI][dK][dI][dW][dF][dQ][dN][dR][dR][dM][dK][dW][dK][dK]-OH; N-terminus and C-terminus assumed) | lesser extent | about 45% |
| CC[C@H](C)[C@H](NC(=O)[C@H](C)NC(=O)[C@@H](N)Cc1c[nH]cn1)C(=O)N[C@@H](Cc1ccc(O)cc1)C(=O)N1CCC[C@H]1C(=O)N[C@@H](CCCNC(=N)N)C(=O)N[C@@H](Cc1c[nH]cn1)C(=O)N[C@@H](CO)C(=O)N[C@@H](Cc1c[nH]c2ccccc12)C(=O)N[C@H](C(=O)N[C@@H](Cc1c[nH]c2ccccc12)C(=O)N[C@@H](CCC(=O)O)C(=O)N[C@H](CCCCN)C(=O)N[C@H](CCCCN)C(=O)N[C@H](CC(C)C)C(=O)N[C@H](CCC(=O)O)C(=O)N[C@@H](C(=O)N[C@H](C)C(=O)N[C@@H](C(=O)N[C@H](CC(N)=O)C(=O)N[C@H](CC(C)C)C(=O)N[C@H](C)C(=O)N[C@H](Cc1c[nH]c2ccccc12)C(=O)N[C@@H](C(=O)N[C@H](C)C(=O)NCC(=O)N[C@H](CC(N)=O)C(=O)N[C@H](CO)C(=O)N[C@H](CC(N)=O)C(=O)N[C@@H](CCCCN)C(=O)N[C@@H](Cc1c[nH]c2ccccc12)C(=O)N[C@H](C(=O)N[C@@H](Cc1c[nH]c2ccccc12)C(=O)N[C@@H](CCCCN)C(=O)O)[C@@H](C)O)[C@H](C)O)C(C)C)[C@H](C)O)[C@@H](C)O [Tf-D-LP4] | lesser extent | about 45% |
